Measured values from the NIST ThermoML archive (doi:10.1021/acs.jced.9b00406).
Numbers after ± are expanded uncertainties.

How the values were obtained:
[1] = Crystal; DSC
[2] = Molar enthalpy of transition or fusion; settings: Crystal; DSC

Triple point temperature [1]: 440.35 ± 1.2 K | Molar enthalpy of transition or fusion [2]: 28.6 ± 0.99 kJ/mol
Compound: Cc1cnc(C(=O)O)cn1 [2-methylpyrazine-5-carboxylic acid]
